Measured values: patent publication US10377742B2, “AMPK-activating heterocyclic compounds and methods for using the same” (Rigel Pharmaceuticals, Inc., priority 2010, dated 2019)

Molecular target: AMPK
Test: AMPK activation, enzyme-linked immunosorbent assay
Format: biochemical
Description: Compounds were assayed for their ability to activate AMPK using an enzyme-linked immunosorbent assay. Reagents and procedures for measuring AMPK activation are well known and kits for AMPK activation assays are commercially available.

| SMILES | EC50 |
| --- | --- |
| N#Cc1ccc(CN2CCC(NC(=O)c3ccc(Nc4ccc(Cc5ccccc5)cc4)cn3)CC2)cc1 [Compound 108, 5-(4-benzylphenylamino)-N-(1-(4-cyanobenzyl)piperidin-4-yl)picolinamide] | 500 to 1000 nM |
| N#Cc1ccc(CN2CCC(NC(=O)c3ccc(C(=O)N4CCC(Cc5ccccc5)CC4)cn3)CC2)cc1 [Compound 124, 5-(4-benzylpiperidine-1-carbonyl)-N-(1-(4-cyanobenzyl)piperidin-4-yl)picolinamide] | < 500 nM |
| N#Cc1ccc(CN2CCc3ccc(NC(=O)c4ccc(C(=O)N5CCN(Cc6ccc(F)cc6)CC5)cn4)cc3C2)cc1 [Compound 132, N-(2-(4-cyanobenzyl)-1,2,3,4-tetrahydroisoquinolin-7-yl)-5-(4-(4-fluorobenzyl)piperazine-1-carbonyl)picolinamide] | < 500 nM |
| N#Cc1ccc(O[C@H]2CC[C@@H](NC(=O)c3ccc(C(=O)N4CCC(Oc5ccc(C(F)(F)F)cc5)CC4)cn3)CC2)cc1F [Compound 199, N-((cis)-4-(4-cyano-3-fluorophenoxy)cyclohexyl)-5-(4-(4-(trifluoromethyl)phenoxy)piperidine-1-carbonyl)picolinamide] | < 500 nM |
| COc1ccc(C(=O)C2CCN(C(=O)c3ccc(C(=O)N[C@H]4CC[C@@H](Oc5cc(F)cc(F)c5)CC4)nc3)CC2)cc1 [Compound 300, N-((cis)-4-(3,5-difluorophenoxy)cyclohexyl)-5-(4-(4-methoxybenzoyl)piperidine-1-carbonyl)picolinamide] | < 500 nM |
| N#Cc1ccc(OC2CCN(C(=O)c3ccc(C(=O)N[C@H]4CC[C@@H](Oc5ccc(F)cc5)CC4)nc3)CC2)cc1 [Compound 303, 5-(4-(4-cyanophenoxy)piperidine-1-carbonyl)-N-((cis)-4-(4-fluorophenoxy)cyclohexyl)picolinamide] | < 500 nM |
| O=C(N[C@H]1CC[C@@H](Oc2ccc(F)cc2)CC1)c1ccc(C(=O)N2CCC(C(=O)c3ccc(F)cc3)CC2)cn1 [Compound 304, 5-(4-(4-fluorobenzoyl)piperidine-1-carbonyl)-N-((cis)-4-(4-fluorophenoxy)cyclohexyl)picolinamide] | < 500 nM |
| COc1ccc(C(=O)C2CCN(C(=O)c3ccc(C(=O)N[C@H]4CC[C@@H](Oc5ccc(F)cc5)CC4)nc3)CC2)cc1 [Compound 311, N-((cis)-4-(4-fluorophenoxy)cyclohexyl)-5-(4-(4-methoxybenzoyl)piperidine-1-carbonyl)picolinamide] | < 500 nM |
| O=C(N[C@H]1CC[C@@H](Oc2ccc(F)cc2)CC1)c1ccc(C(=O)N2CCC(Oc3ccc(F)cc3)CC2)cn1 [Compound 312, N-((cis)-4-(4-fluorophenoxy)cyclohexyl)-5-(4-(4-fluorophenoxy)piperidine-1-carbonyl)picolinamide] | < 500 nM |
| COc1ccc(C(=O)C2CCN(C(=O)c3ccc(C(=O)N[C@H]4CC[C@@H](Oc5ccc(F)cc5)CC4)cn3)CC2)cc1 [Compound 316, N-((cis)-4-(4-fluorophenoxy)cyclohexyl)-6-(4-(4-methoxybenzoyl)piperidine-1-carbonyl)nicotinamide] | < 500 nM |
| N#Cc1ccc(OC2CCN(C(=O)c3ccc(C(=O)N[C@H]4CC[C@@H](Oc5ccc(C#N)cc5)CC4)cn3)CC2)cc1 [Compound 321, N-((cis)-4-(4-cyanophenoxy)cyclohexyl)-6-(4-(4-cyanophenoxy)piperidine-1-carbonyl)nicotinamide] | < 500 nM |
| N#Cc1ccc(OC2CCN(C(=O)c3ccc(C(=O)N[C@H]4CC[C@@H](Oc5ccc(F)cc5)CC4)cn3)CC2)cc1 [Compound 324, 6-(4-(4-cyanophenoxy)piperidine-1-carbonyl)-N-((cis)-4-(4-fluorophenoxy)cyclohexyl)nicotinamide] | < 500 nM |
| N#Cc1ccc(O[C@H]2CC[C@@H](NC(=O)c3ccc(C(=O)N4CCN(Cc5ccc(F)cc5)CC4)nc3)CC2)cc1 [Compound 332, N-((cis)-4-(4-cyanophenoxy)cyclohexyl)-6-(4-(4-fluorobenzyl)piperazine-1-carbonyl)nicotinamide] | < 500 nM |

Second part, the molecule after the results:

| EC50 | SMILES |
| --- | --- |
| < 500 nM | COc1ccc(C(=O)C2CCN(C(=O)c3ccc(C(=O)N[C@@H]4CCN(Cc5ccc(OC(F)(F)F)cc5)C[C@H]4F)cn3)CC2)cc1 (relative stereo) [Compound 350, N-((trans)-3-fluoro-1-(4-(trifluoromethoxy)benzyl)piperidin-4-yl)-6-(4-(4-methoxybenzoyl)piperidine-1-carbonyl)nicotinamide] |
| < 500 nM | COc1ccc(C(=O)C2CCN(C(=O)c3ccc(C(=O)N[C@@H]4CCN(Cc5ccc(OC(C)C)cc5)C[C@H]4F)cn3)CC2)cc1 (relative stereo) [Compound 353, N-((trans)-3-fluoro-1-(4-isopropoxybenzyl)piperidin-4-yl)-6-(4-(4-methoxybenzoyl)piperidine-1-carbonyl)nicotinamide] |
| < 500 nM | COc1ccc(C(=O)C2CCN(C(=O)c3ccc(C(=O)N[C@@H]4CCN(Cc5ccc(C#N)c(F)c5)C[C@H]4F)cn3)CC2)cc1 (relative stereo) [Compound 354, N-((trans)-1-(4-cyano-3-fluorobenzyl)-3-fluoropiperidin-4-yl)-6-(4-(4-methoxybenzoyl)piperidine-1-carbonyl)nicotinamide] |
| < 500 nM | COc1ccc(C(=O)C2CCN(C(=O)c3ccc(C(=O)N[C@@H]4CCN(Cc5ccc(C#N)cc5)C[C@@H]4F)cn3)CC2)cc1 (relative stereo) [Compound 454, N-((cis)-1-(4-cyanobenzyl)-3-fluoropiperidin-4-yl)-6-(4-(4-methoxybenzoyl)piperidine-1-carbonyl)nicotinamide] |
| < 500 nM | N#Cc1ccc(CN2CC[C@@H](NC(=O)c3ccc(C(=O)N4CCC(Oc5ccc(S(=O)(=O)C(F)(F)F)cc5)CC4)nc3)C(F)C2)cc1 (stereo in doubt) [Compound 451, N-((3S,4R)-1-(4-cyanobenzyl)-3-fluoropiperidin-4-yl)-6-(4-(4-(trifluoromethylsulfonyl)phenoxy)piperidine-1-carbonyl)nicotinamide] |
| < 500 nM | N#Cc1ccc(CN2CCC(NC(=O)c3ccc(C(=O)N4CCC(Oc5ccc(C#N)cc5)CC4)nn3)CC2)cc1 [Compound 388, N-(1-(4-cyanobenzyl)piperidin-4-yl)-6-(4-(4-cyanophenoxy)piperidine-1-carbonyl)pyridazine-3-carboxamide] |
| < 500 nM | CC(=O)c1ccc(OC2CCN(C(=O)c3ccc(C(=O)NC4CCC(Oc5ccc(C#N)cc5)CC4)cn3)CC2)cc1 (stereo not shown) [Compound 402, 6-(4-(4-acetylphenoxy)piperidine-1-carbonyl)-N-(4-(4-cyanophenoxy)cyclohexyl)nicotinamide] |
| 1000 to 5000 nM | CS(=O)(=O)c1ccc(N2CCC(NC(=O)c3ccc(C(=O)N4CCN(Cc5ccc(F)cc5)CC4)nc3)CC2)cc1 [Compound 421, 6-(4-(4-fluorobenzyl)piperazine-1-carbonyl)-N-(1-(4-(methylsulfonyl)phenyl)piperidin-4-yl)nicotinamide] |
| < 500 nM | COc1ccc(C(=O)C2CCN(C(=O)c3ccc(C(=O)N[C@@H]4CCN(Cc5cc(C)on5)C[C@@H]4F)cn3)CC2)cc1 [Compound 426, N-((3S,4R)-3-fluoro-1-((5-methylisoxazol-3-yl)methyl)piperidin-4-yl)-6-(4-(4-methoxybenzoyl)piperidine-1-carbonyl)nicotinamide] |
| 1000 to 5000 nM | COc1ccc(C(=O)C2CCN(C(=O)c3ccc(C(=O)N[C@@H]4CCN(Cc5csc(C)n5)C[C@@H]4F)cn3)CC2)cc1 [Compound 427, N-((3S,4R)-3-fluoro-1-((2-methylthiazol-4-yl)methyl)piperidin-4-yl)-6-(4-(4-methoxybenzoyl)piperidine-1-carbonyl)nicotinamide] |
| < 500 nM | N#Cc1ccc(O[C@H]2CC[C@@H](NC(=O)c3ccc(C(=O)N4CCC(Oc5cccc(NC(=O)C6CC6)c5)CC4)nc3)CC2)cc1 [Compound 434, N-((cis)-4-(4-cyanophenoxy)cyclohexyl)-6-(4-(3-(cyclopropanecarboxamido)phenoxy)piperidine-1-carbonyl)nicotinamide] |
| < 500 nM | N#Cc1ccc(O[C@H]2CC[C@@H](NC(=O)c3ccc(C(=O)N4CCC(C(=O)c5ccc(N6CCCC6)cc5)CC4)nc3)CC2)cc1 [Compound 442, N-((cis)-4-(4-cyanophenoxy)cyclohexyl)-6-(4-(4-(pyrrolidin-1-yl)benzoyl)piperidine-1-carbonyl)nicotinamide] |
